Read-outs that look alike come from different tables or passages of the source.
Key:
[1] = test system: human neuroblastoma SK-N-MC cells; test: Protection against neuronal death induced by tunicamycin (endoplasmic reticulum stress), WST-1; type: cell-based; conditions: NST0060 at 4 μM; 24 μM tunicamycin, 22 hours; significant from 1 to 40 μM
Description: The assay was performed on human neuroblastoma SK-N-MC cells in culture, maintained as described in section 2.1.
The inhibition caused by compound NST0060 with respect to cell death caused by treatment with tunicamycin generating endoplasmic reticulum stress was analyzed. Tunicamycin is an inhibitor of protein N-glycosylation, causing abnormal protein folding in the endoplasmic reticulum, therefore said proteins are accumulated and cause stress, resulting in cell death. These cells, not exceeding 15 passages, were seeded on 96-well plates treated for adherent cells with a cell concentration of 5×10^4 cells/well; 3 wells of the plate were seeded for each assay condition.
After 24 hours of cell incubation (at 37° C. and 5% CO2), the cell treatments were performed with 100 μl of total volume for the following conditions: • Control: culture medium (medium) • Tunicamycin (TM): medium plus 24 μM tunicamycin, causing death of 50% of the cells. • TM plus NST0060: medium plus TM (24 μM) plus NST0060 at 1, 4, 10, 40 or 100 μM
The cells were incubated (at 37° C. and 5% CO2) with these treatments for 22 hours, after which time WST-1 reagent (Roche) was added. The WST-1 test is based on the measurement of metabolic activity (method described in section 2.1).

[2] = biological target: T1, 3-hydroxy-3-methylglutaryl coenzyme A reductase (HMGR) (Homo sapiens, UniProt P04035); test: Inhibition of HMGR enzyme activity in vitro, NADPH absorbance at 340 nm; type: biochemical; conditions: active forms (activated with 0.1 N NaOH); five independent assays in duplicate
T1 sequence (P04035 340-888 limits assumed): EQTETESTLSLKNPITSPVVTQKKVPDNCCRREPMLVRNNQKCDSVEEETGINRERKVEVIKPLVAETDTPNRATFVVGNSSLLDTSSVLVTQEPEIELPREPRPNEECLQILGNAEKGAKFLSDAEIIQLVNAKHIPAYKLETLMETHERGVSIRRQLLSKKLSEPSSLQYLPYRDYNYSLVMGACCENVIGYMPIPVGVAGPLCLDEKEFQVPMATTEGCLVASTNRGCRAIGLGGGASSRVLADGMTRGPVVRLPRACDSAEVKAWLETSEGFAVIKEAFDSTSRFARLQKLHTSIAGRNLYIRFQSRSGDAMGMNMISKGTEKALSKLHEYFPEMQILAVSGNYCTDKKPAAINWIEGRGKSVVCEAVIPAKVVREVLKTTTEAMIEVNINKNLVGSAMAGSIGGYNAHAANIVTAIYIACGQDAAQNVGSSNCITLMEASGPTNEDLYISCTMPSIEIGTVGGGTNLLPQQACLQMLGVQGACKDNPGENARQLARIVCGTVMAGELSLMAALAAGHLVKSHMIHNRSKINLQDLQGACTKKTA
Description: The assay was carried out in a 96-well plate, with a total reaction volume of 200 μl.

TNFα = test: LPS model of systemic shock in mice, plasma TNFα at 2 and 4 hours; type: in vivo; conditions: two i.p. doses of 50 mg/kg; 2 and 4 hours post-LPS
Description: To that end an additional assay was carried out in which all the animals included were 12-week old male C57BL6 mice. The experiments were carried out strictly complying with the standard entitled Guidance on the Operation of Animals (Scientific Procedures, Act. 1986). The animals were subjected to their respective quarantine period and were treated with maximum precaution to minimize possible contaminations during treatments and handling.
The mice were split up into three experimental groups: control group (n=8); control+LPS group (n=16); NST0060+LPS group (n=16). The mice were i.p. administered two doses of 50 mg/kg of NST0060 (in its lactone form) spaced out 12 hours from one another. 0.5% methyl cellulose in physiological saline, which was administered to the mice in the control groups with the same administration regimen, was used as a vehicle. Peripheral systemic inflammation was induced one hour after the last treatment by means of a single i.p. injection of LPS at 8 mg/kg. Half the mice in which systemic shock was induced (8 animals from the control+LPS group and 8 animals from the NST0060+LPS group) were sacrificed 2 hours after the inoculation of the LPS. Blood was taken and plasma was obtained, and both were frozen. […] The concentration of the inflammatory cytokines TNFα and IL-1β was evaluated in the plasma obtained by means of ELISA.

FVB/NHan mice = test: Kainate (KA) model of epilepsy in mice, convulsions, status epilepticus, latency, Racine scale; type: in vivo
Description: All the animals included during the experimental process were 12-week old males from the FVB/NHan strain. The experiments were carried out strictly complying with the standard entitled Guidance on the Operation of Animals (Scientific Procedures, Act. 1986). The animals were subjected to their respective quarantine period and were treated with maximum precaution to minimize possible contaminations during inoculations and handling.
The animals were intraperitoneally inoculated with 25 mg/kg of kainate (KA) dissolved in PBS. Fourteen animals were pretreated at 24 and 0.5 hours before inoculation with KA by means of intraperitoneal injection with 0.25% methyl cellulose in PBS (vehicle+KA administration regimen), and 14 were pretreated at 24 and 0.5 hours before inoculation with KA by means of intraperitoneal injection with compound NST0060 at a dose of 50 mg/kg (NST0060+KA administration regimen). After inoculation, the animals were individually housed in trays to monitor them. The maximum level of epilepsy of the animals was recorded during the observation according to the Racine scale every ten minutes and for at least 120 minutes post-inoculation (m.p.i.).

[3] = test system: zebrafish (Danio rerio, AB strain) embryos; conditions: in vivo
Description: The study of this parameter (cardiotoxicity) not only determines the heart rate of the animals but also it allows determining heart beat alterations (tachycardia, bradycardia, etc.) or heart development anomalies (pericarditis, atrophy, hypertrophy, etc.).
The determination of the heart rate of the zebrafish embryos or larvae is performed visually. The heart beat (with the help of a manual counter) is counted for a period of 15 seconds by means of a magnifying glass (magnifications of 4-40×). The heartbeat of 12 of the 30 animals used per treatment in total is counted. The number of beats obtained is multiplied by 4 to obtain the number of heart beats per minute of the animal.

Structure (SMILES): CCCC(CCC)C(=O)O[C@H]1C[C@@H](C)C=C2C=C[C@H](C)[C@H](CC[C@@H]3C[C@@H](O)CC(=O)O3)[C@H]21 [NST0060, 2-propylpentanoic acid (1S,3R,7S,8S,8aR)-1,2,3,7,8,8a-hexahydro-3,7-dimethyl-8-[2-[(2R,4R)-tetrahydro-4-hydroxy-6-oxo-2H-pyran-2-yl]ethyl]-1-naphthalenyl ester]
- protection against cell death caused by TM [1]: 42%
- IC50 [2]: 126 ± 34.6 nM
- plasma concentration of TNFα (inflammatory response) (TNFα): decrease in the inflammatory response at both 2 and 4 hours post-LPS
- Status epilepticus, percentage of animals with tonic-clonic seizures lasting at least 30 minutes (FVB/NHan mice; 50 mg/kg i.p. at 24 and 0.5 hours before KA 25 mg/kg i.p., vehicle+KA 79%): 29%
- Convulsions, percentage of animals with tonic-clonic seizures (FVB/NHan mice; 50 mg/kg i.p. at 24 and 0.5 hours before KA 25 mg/kg i.p., vehicle+KA 93%): 36%
- latency (time when the first convulsions occurred) (FVB/NHan mice; 50 mg/kg i.p. at 24 and 0.5 hours before KA 25 mg/kg, mean±SEM, vehicle+KA 45.7±7.5): 100.1 ± 7.3 min
- mean level of epilepsy on the Racine scale (FVB/NHan mice; 50 mg/kg i.p., two hours after KA, vehicle+KA above 4): ≤ 3
- heart rate with respect to the controls ([3]; AB, zebrafish (Danio rerio), 3 mg/kg, 72 h): not at the dose of 3 mg/Kg
- heart rate with respect to the controls ([3]; 10 mg/kg): decrease of the heart rate is detected
